In the NIST ThermoML archive (doi:10.1007/s10765-015-1980-6):

How the values were obtained:
[1] = 101 kPa, Liquid; for speed of sound: Frequency=2 MHz; for mass density: Pycnometric method
[2] = xn = mol fraction of the nth substance listed; conditions: 101 kPa, Liquid; for speed of sound: Frequency=2 MHz; for mass density: Pycnometric method

OCCCCO [1,4-butanediol]
[1], Linear variable-path acoustic interferometer
Conditions | speed of sound [m/s]
298.15 K | 1601.6
303.15 K | 1589.3
308.15 K | 1577.7
313.15 K | 1565.6

[1]
Conditions | mass density [kg/m3]
298.15 K | 1012.6
303.15 K | 1009.6
308.15 K | 1006.7
313.15 K | 1003.7

CCCCO [butan-1-ol]
[1]
Conditions | mass density [kg/m3] | speed of sound [m/s]
298.15 K | 805.6 | 1241.1
303.15 K | 801.9 | 1223.8
308.15 K | 798.2 | 1205.8
313.15 K | 794.5 | 1188.8

CCCCO [butan-1-ol] + OCCOCCO
[2], x2 = 0
Conditions | mass density [kg/m3] | speed of sound [m/s]
298.15 K | 805.6 | 1241.1
303.15 K | 801.9 | 1223.8
308.15 K | 798.2 | 1205.8
313.15 K | 794.5 | 1188.8

CCC(C)O (stereo unspecified) [butan-2-ol]
[1], Linear variable-path acoustic interferometer
Conditions | speed of sound [m/s]
298.15 K | 1212.2
303.15 K | 1194.1
308.15 K | 1175.3
313.15 K | 1157.4

[1]
Conditions | mass density [kg/m3]
298.15 K | 802.4
303.15 K | 798.3
308.15 K | 794.2
313.15 K | 790.1

CCC(C)O (stereo unspecified) [butan-2-ol] + OCCOCCO
[2], Linear variable-path acoustic interferometer, x2 = 0
Conditions | speed of sound [m/s]
298.15 K | 1212.2
303.15 K | 1194.1
308.15 K | 1175.3
313.15 K | 1157.4

[2], x2 = 0
Conditions | mass density [kg/m3]
298.15 K | 802.4
303.15 K | 798.3
308.15 K | 794.2
313.15 K | 790.1

OCCOCCO [diethylene glycol]
[1]
Conditions | mass density [kg/m3] | speed of sound [m/s]
298.15 K | 1112.7 | 1579.3
303.15 K | 1109.3 | 1568
308.15 K | 1105.9 | 1557.3
313.15 K | 1102.5 | 1546.1

OCCOCCO [diethylene glycol] + OCCCCO
[2], Linear variable-path acoustic interferometer, x1 = 1
Conditions | speed of sound [m/s]
298.15 K | 1579.3
303.15 K | 1568
308.15 K | 1557.3
313.15 K | 1546.1

[2], x1 = 1
Conditions | mass density [kg/m3]
298.15 K | 1112.7
303.15 K | 1109.3
308.15 K | 1105.9
313.15 K | 1102.5
